These are literature values, as cited in US7901914B2, “Microbiological method of the biosynthesis of natural blue-violet colorants violacein and deoxyviolacein and the utilization thereof” (Stiftung Alfred-Wegener-Institut fuer Polar- und …, priority 2000, dated 2011).

Regarding `O=C1NC(c2c[nH]c3ccc(O)cc23)=C/C1=C1\C(=O)Nc2ccccc21` [violacein, 3-[1,2-dihydro-5-(5-hydroxy-1H-indole-3-yl)-2-oxo-3-H-pyrrole-3-ylidene]-1,3-dihydro-2H-indole-2-on], the “solubility in organic solvents” value (in acetone, ethanol and dioxane) was “soluble”. Also, the solubility in water entry (in water) is “practically insoluble”.
